From PMC5553892, “A fourth subtype of retinoic acid receptor-related orphan receptors is activated by oxidized all-trans retinoic acid in medaka (Oryzias latipes)” (Zoological Letters, 2017)

Tests used:
Format in all cases: cell-based
RORd1 [1] = molecular target: T1, RORd1 (Oryzias latipes, UniProt H2LFF5); assay: Gal4-RORd1 LBD luciferase reporter assay in stable HEK293 cells (agonist)
T1 construct: gene rorca
T1 sequence (H2LFF5 98-473): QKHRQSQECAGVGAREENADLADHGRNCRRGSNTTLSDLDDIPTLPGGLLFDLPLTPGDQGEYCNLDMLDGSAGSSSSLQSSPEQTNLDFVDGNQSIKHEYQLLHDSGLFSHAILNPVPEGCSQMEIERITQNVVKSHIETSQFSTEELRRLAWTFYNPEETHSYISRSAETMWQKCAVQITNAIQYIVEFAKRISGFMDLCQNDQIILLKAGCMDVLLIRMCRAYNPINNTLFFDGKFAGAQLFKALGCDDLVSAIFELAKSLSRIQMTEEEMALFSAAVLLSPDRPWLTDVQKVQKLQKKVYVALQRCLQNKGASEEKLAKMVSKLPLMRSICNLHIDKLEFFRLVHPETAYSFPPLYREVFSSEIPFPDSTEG

RORd1 [2] = molecular target: T1, RORd1; assay: Gal4-RORd1 LBD luciferase reporter assay in stable HEK293 cells (weak agonist, […], EC50 not calculable)
RORd1 [3] = molecular target: T1, RORd1; assay: as above; remark: listed apart in the source

| Compound | EC50 (RORd1 [1]) [nM] | further results |
| --- | --- | --- |
| CC1=C(/C=C/C(C)=C/C=C/C(C)=C/C(=O)O)C(C)(C)CCC1=O [4 K–ATRA, all-trans 4-ketoretinoic acid] | 737 ± 47.3 | – |
| CC1=C(/C=C/C(C)=C/C=C/C(C)=C/C(=O)O)C(C)(C)CCC1O (stereo not drawn) [4OH-ATRA, all-trans 4-hydroxyretinoic acid] | 539 ± 97.3 | – |
| CC(/C=C/C12OC1(C)CCCC2(C)C)=C\C=C\C(C)=C\C(=O)O (stereo not drawn) [5,6E–ATRA, all-trans 5,6-epoxyretinoic acid] | – | EC50 (RORd1 [2]): > 10000 nM |
| CC1=C(/C=C/C(C)=C/C=C/C(C)=C/C(=O)O)C(C)(C)CCC1 [ATRA, all-trans retinoic acid] | – | EC50 (RORd1 [3]): > 10000 nM |
